Source: ChEMBL document CHEMBL3243942, “Nondepressant beta-adrenergic blocking agents. 1. Substituted 3-amino-1-(5,6,7,8-tetrahydro-1-naphthoxy)-2-propanols” (J Med Chem, 1978)
≈ marks a conversion by molar mass, not a printed value. Calls of active or inactive are those of the source. The rule behind the calls is not given here.

How the values were obtained:
[1] = Myocardial depressant activity in guinea pig atrial muscle assessed as maximal non-depressant dose by measuring contractility; assay type: ADME, tissue-based, Cavia porcellus, Muscle tissue
[2] = Inhibition of beta-adrenergic receptor in isoproterenol-stimulated guinea pig atrial muscle; assay type: tissue-based, Cavia porcellus, Cardiac atrium
[3] = Retention time of the compound; assay type: physicochemical
Adrenergic receptor beta = Adrenergic receptor beta (Rattus norvegicus, UniProt P18090+P10608+P26255); assay: Inhibition of beta-adrenergic receptor in rat portal vein
[4] = Myocardial depressant activity in guinea pig atrial muscle assessed as decrease in contractility at 1.0 mg/ml; assay type: ADME, tissue-based, Cavia porcellus, Muscle tissue
[5] = Myocardial depressant activity in guinea pig atrial muscle assessed as decrease in contractility at 0.31 x 10^-3 to 0.31 mg/ml; assay type: ADME, tissue-based, Cavia porcellus, Muscle tissue
[6] = Myocardial depressant activity in cat papillary muscle assessed as decrease in contractile force at >0.31 mg/ml; assay type: ADME, tissue-based, Felis catus, Muscle tissue
Felis catus = organism: Felis catus; assay: Inhibition of beta-adrenergic receptor in cat papillary muscle; assay type: tissue-based

| Compound | Activity [1] | IC50 [2] | further results |
| --- | --- | --- | --- |
| CO[C@@H]1c2c(cccc2OCC(O)CNC(C)C)CC[C@@H]1O.O=C(O)C(=O)O (relative stereo) | 10 µg/mL | 0.8 µg/mL | – |
| CCOc1ccccc1OCCNCC(O)COc1cccc2c1C[C@H](O)[C@H](O)C2 (stereo not given in full) | 31 µg/mL | 0.31 µg/mL (≈ 0.743 µM) | – |
| CC(C)(C)NCC(O)COc1cccc2c1CC(O)CC2 (stereo not given) | 1 µg/mL | 0.0025 µg/mL (≈ 0.00852 µM) | – |
| CC(C)(C)NCC(O)COc1ccc2c(c1)C[C@@H](O)[C@@H](O)C2 (relative stereo) | > 1000 µg/mL | 10 µg/mL (≈ 32.3 µM) | – |
| CC(C)(C)NCC(O)COc1cccc2c1C[C@@H](O)[C@@H](O)C2 (relative stereo) | > 1000 µg/mL | 0.03 µg/mL (≈ 0.097 µM) | – |
| CC(C)NCC(O)COc1cccc2c1CCC(=O)C2 (stereo not given) | 3.1 µg/mL | 0.006 µg/mL (≈ 0.0216 µM) | – |
| CC(C)NCC(O)COc1cccc2ccccc12 (stereo not given) [PROPRANOLOL] | 0.31 µg/mL | – | – |
| CC(C)NCC(O)COc1cccc2c1C[C@H](O)[C@@H](O)C2 (relative stereo) | > 1000 µg/mL | 0.05 µg/mL (≈ 0.169 µM) | – |
| Oc1cccc2c1C=CCC2 | – | – | Retention_time [3]: 35 min |
| Cl.NCC(O)COc1cccc2c1C[C@H](O)[C@H](O)C2 (stereo not given in full) | > 1000 µg/mL | 3.8 µg/mL | – |
| CO[C@H]1Cc2cccc(OCC(O)CNC(C)(C)C)c2C[C@H]1OC.Cl (relative stereo) | 100 µg/mL | – | IC50 (Adrenergic receptor beta): 0.051 µg/mL |
| CC(C)(C)NCC(O)COc1ccc(O)c2c1C[C@@H](O)[C@@H](O)C2.Cl (relative stereo) | – | 0.086 µg/mL | Activity [4]: Non-toxic; inhibition (INH) [5]: 10% |
| CC(C)NCC(O)COc1cccc2c1CC=CC2 (stereo not given) | 1 µg/mL | 0.001 µg/mL (≈ 0.00383 µM) | – |
| CC(C)(C)NCC(O)COc1ccc(O)c2c1CCCC2 (stereo not given) | 10 µg/mL | 0.01 µg/mL (≈ 0.0341 µM) | – |
| CO[C@@H]1c2cccc(OCC(O)CNC(C)C)c2CC[C@H]1O.O=C(O)C(=O)O (relative stereo) | 31 µg/mL | 0.05 µg/mL | – |
| CC(C)NCC(O)COc1ccc(O)c2c1CCCC2 (stereo not given) | 10 µg/mL | 0.004 µg/mL (≈ 0.0143 µM) | – |
| CC(C)(C)N(CCNCC(O)COc1cccc2c1C[C@H](O)[C@H](O)C2)Cc1ccccc1 (stereo not given in full) | 31 µg/mL | – | IC50 (Adrenergic receptor beta): > 8 µg/mL |
| CC(C)(C)NCC(O)COc1cc(O)c(O)c2c1CCCC2 (stereo not given) | 10 µg/mL | 0.1 µg/mL (≈ 0.323 µM) | – |
| CC(C)NCC(O)COc1cccc2c1C[C@@H](O)[C@@H](O)C2 (relative stereo) | > 1000 µg/mL | 0.1 µg/mL (≈ 0.339 µM) | – |
| CC(C)(Cc1ccccc1)NCC(O)COc1cccc2c1C[C@H](O)[C@H](O)C2 (stereo not given in full) | 3.1 µg/mL | – | IC50 (Adrenergic receptor beta): 0.045 µg/mL (≈ 0.117 µM) |
| CC(C)NCC(O)COc1cc(O)c(O)c2c1CCCC2 (stereo not given) | 100 µg/mL | 0.11 µg/mL (≈ 0.372 µM) | – |
| COc1ccc(CCNCC(O)COc2ccc(O)c3c2CCCC3)cc1OC (stereo not given) | 3.1 µg/mL | 0.024 µg/mL (≈ 0.0598 µM) | – |
| CC(C)NCC(O)COc1cccc2c1CCCC2 (stereo not given) | 1 µg/mL | 0.01 µg/mL (≈ 0.038 µM) | – |
| CC(C)(C)NCC(O)COc1ccc(O)c2c1C[C@@H]1OCO[C@@H]1C2 (stereo not given in full) | 100 µg/mL | 0.3 µg/mL (≈ 0.889 µM) | – |
| COc1ccc(CCNCC(O)COc2cc(O)c(O)c3c2CCCC3)cc1OC.Cl (stereo not given) | 3.1 µg/mL | 5.9 µg/mL | – |
| CN(CC(O)COc1cccc2c1C[C@H](O)[C@H](O)C2)C(C)(C)C (stereo not given in full) | > 1000 µg/mL | Not Active | – |
| CC(O)(CNC(C)(C)C)COc1cccc2c1C[C@H](O)[C@H](O)C2 (stereo not given in full) | 31 µg/mL | 16 µg/mL (≈ 49.5 µM) | – |

| Compound | Activity [1] | IC50 [2] | further results |
| --- | --- | --- | --- |
| COc1ccccc1N1CCN(CC(O)COc2cccc3c2C[C@H](O)[C@H](O)C3)CC1 (stereo not given in full) | – | – | IC50 (Adrenergic receptor beta): 0.46 µg/mL (≈ 1.07 µM) |
| C=CCc1ccc(OCCNCC(O)COc2cccc3c2C[C@H](O)[C@H](O)C3)c(OC)c1 (stereo not given in full) | 3.1 µg/mL | – | IC50 (Adrenergic receptor beta): 1.5 µg/mL (≈ 3.38 µM) |
| OC(CNCc1ccccc1)COc1cccc2c1C[C@H](O)[C@H](O)C2 (stereo not given in full) | 100 µg/mL | 1 µg/mL (≈ 2.91 µM) | – |
| CC(C)(C)NCC(O)COc1ccc2c(c1)C[C@@H](O)[C@H](O)C2 (relative stereo) | 100 µg/mL | 6 µg/mL (≈ 19.4 µM) | – |
| Oc1cccc2c1CCC=C2 | – | – | Retention_time [3]: 37 min |
| CC(C)(C)NCC(O)COc1cccc2c1C[C@H](O)[C@@H](O)C2 (relative stereo) | > 1000 µg/mL | 0.015 µg/mL (≈ 0.0485 µM) | – |
| CC(C)(C)NCC(O)COc1cccc2c1CC[C@@H](O)[C@@H]2O (relative stereo) | 310 µg/mL | 0.02 µg/mL (≈ 0.0646 µM) | – |
| Oc1cccc2c1CCCC2 | – | – | Retention_time [3]: 37.5 min |
| CC(C)N(Cc1ccccc1)CC(O)COc1cccc2c1C[C@H](O)[C@H](O)C2 (stereo not given in full) | 310 µg/mL | 80 µg/mL (≈ 208 µM) | – |
| COc1ccc(CCNCC(O)COc2cccc3c2C[C@H](O)[C@H](O)C3)cc1OC (stereo not given in full) | > 1000 µg/mL | 0.07 µg/mL (≈ 0.168 µM) | – |
| CC(C)(C)CC(C)(C)NCC(O)COc1cccc2c1C[C@H](O)[C@H](O)C2 (stereo not given in full) | 1 µg/mL | – | IC50 (Adrenergic receptor beta): 0.78 µg/mL (≈ 2.13 µM) |
| CCCCNCC(O)COc1cccc2c1C[C@H](O)[C@H](O)C2 (stereo not given in full) | – | – | IC50 (Adrenergic receptor beta): 0.44 µg/mL (≈ 1.42 µM) |
| OC(COc1cccc2c1C[C@H](O)[C@H](O)C2)CN1CCN(c2ccccn2)CC1 (stereo not given in full) | > 310 µg/mL | Not Active | – |
| CCN(CC)CC(O)COc1cccc2c1C[C@H](O)[C@H](O)C2 (stereo not given in full) | > 1000 µg/mL | 31 µg/mL (≈ 100 µM) | – |
| CC(C)(C)NCC(O)COc1cccc2c1CCCC2=O (stereo not given) [BUNOLOL] | 1 µg/mL | 0.006 µg/mL (≈ 0.0206 µM) | – |
| OC(CNCCc1ccccc1)COc1cccc2c1C[C@H](O)[C@H](O)C2 (stereo not given in full) | 100 µg/mL | 0.5 µg/mL (≈ 1.4 µM) | – |
| CC(C)NCC(O)COc1cccc2c1CC1OC1C2 (stereo not given) | 31 µg/mL | 0.012 µg/mL (≈ 0.0433 µM) | – |
| CC(C)NCC(O)COc1cccc2c1CCC(O)C2.O=C(O)C(=O)O (stereo not given) | 31 µg/mL | 0.002 µg/mL | – |
| CC(C)NCC(O)COc1cccc2c1CC(O)CC2 (stereo not given) | 3.1 µg/mL | 0.005 µg/mL (≈ 0.0179 µM) | – |
| CC(C)(C)NCC(O)COc1cccc2c1CCC(O)C2 (stereo not given) | 10 µg/mL | 0.001 µg/mL (≈ 0.00341 µM) | – |
| CC(C)(C)NCC(O)COc1cccc2c1CC=CC2 (stereo not given) | 0.3 µg/mL | – | IC50 (Adrenergic receptor beta): 0.0013 µg/mL (≈ 0.00472 µM) |
| Cl.NCC(O)COc1ccc(O)c2c1CCCC2 (stereo not given) | 31 µg/mL | 0.15 µg/mL | – |
| CC(C)(C)NCC(O)COc1cccc2c1C[C@@H]1OCO[C@@H]1C2 (relative stereo) | 3.1 µg/mL | 0.04 µg/mL (≈ 0.124 µM) | – |
| CCN(CC(O)COc1cccc2c1C[C@H](O)[C@H](O)C2)C(C)(C)C (stereo not given in full) | > 1000 µg/mL | – | – |
| CC(C)(C)NCC(O)COc1ccc(I)c2c1C[C@H](O)[C@H](O)C2 (relative stereo) | – | – | Activity [6]: Toxic; inhibition (Felis catus): Active |
| CC(C)(C)[N+](C)(C)CC(O)COc1cccc2c1C[C@H](O)[C@H](O)C2.[I-] (stereo not given in full) | 1000 µg/mL | 0.63 µg/mL | – |
